Test results published in patent US20170224833A1, “SELF-ASSEMBLING MOLECULES THAT ACCUMULATE IN ACIDIC TUMOR MICROENVIRONMENTS” (OHIO STATE INNOVATION FOUNDATION, priority 2014, published 2017).
Residues, ends and D or L forms follow the SMILES beside them. No end group written: not given here. *: point of attachment. Rubipy = bis(2,2'-bipyridine)-4'-methyl-4-carboxybipyridine ruthenium(II), conjugated to the lysine epsilon-amine; Palmitoyl = CCCCCCCCCCCCCCCC(=O)*

Tests used:
Assay type in all cases: physicochemical
[1] = Circular dichroism (CD) spectroscopy of pH-triggered self-assembly transition in 150 mM NaCl, 2.2 mM CaCl2; details: for CD Transition pH: 10 μM PA, 150 mM NaCl, 2.2 mM CaCl2, random coil to β-sheet
Experimental: The target PA concentration (10 μM) was below the detectable limit of conventional techniques to determine the morphology such as cryoTEM and small-angle X-ray scattering. Consequently, circular dichroism (CD) spectroscopy was initially used to characterize the morphology of these PAs at various pH values. PA1 was the first molecule synthesized that underwent a self-assembly transition in the desired pH range of 6.6-7.4 at 10 μM PA concentration, in 150 mM NaCl and 2.2 mM CaCl2 (FIG. 2A) (Goldberger, J. E., et al. Angew. Chem. Int. Ed. 2011 50:6292-95). […] The transition pH from random coil to β-sheet occurred at a pH of 6.6. The transition pH was defined as the value at which the ellipticity at 205 nm rises to zero, followed by the appearance of a minimum at 218-220 nm.
Measurements were done on a Jasco-815 Circular Dichroism spectrometer using 1 cm path length quartz cuvettes. 10 μM solutions of peptide amphiphiles were prepared in 150 mM NaCl and 2.2 mM CaCl2 by dilution from a concentrated PA stock (0.5-1 mM, pH 9). Double de-ionized Milli-Q water was used for preparing all solutions. The solutions were then heated at 80° C. for 30 minutes in a water bath and gradually cooled to room temperature. An Accumet XL15 pH meter (Fisher Scientific) coupled with an Orion Ross Ultra semi-micro electrode (8103BNUWP, Thermo Scientific) was used to adjust the pH of the solution to the desired value followed by collection of the CD spectra Each trace shown was averaged over 3 accumulations and was baseline subtracted using aqueous solutions containing salts only. All spectra are cut-off below 205 nm due to absorption by NaCl and CaCl2.
Measurements were done on a Jasco-815 Circular Dichroism spectrometer using 0.5-1 cm path length quartz cuvettes. 500-10 μM of either pure PA or PA mixtures were prepared in 150 mM NaCl and 2.2 mM CaCl2 (and 1.8 mM 20 kDa PEG in select samples) by dilution from a concentrated PA stock (0.5-1 mM, pH 9). Double de-ionized Milli-Q water was used for preparing all solutions. The solutions were then heated at 80° C. for 30 minutes in a water bath and gradually cooled to room temperature. An Accumet XL15 pH meter (Fisher Scientific) coupled with an Orion Ross Ultra semi-micro electrode (8103BNUWP, Thermo Scientific) was used to adjust the pH of the solution to the desired value followed by collection of the CD spectra. Each trace shown was averaged over 3 accumulations and was baseline subtracted using aqueous solutions containing salts only. All spectra are cut-off below 200 nm due to absorption by NaCl and CaCl2. The same procedure was followed for the salt control samples with 3.0 and 4.0 mM CaCl2.
Self-assembly behavior is known to be extremely sensitive to minor changes in monomer structure and presence of impurities. […] CAC measurements via the pyrene 1:3 method (Das, D. et al. J. Colloid Interface Sci. 2008, 327:198) were used to ascertain the single molecule to spherical micelle transitions at varying pH values (FIGS. 24A-24C). CD Spectroscopy was used to determine the pH points at which different concentrations (10-500 μM) of the PA molecules transitioned from a random coil to a β-sheet secondary structure (FIGS. 25A-25C). It has been previously shown that the random coil and β-sheet structures correspond to spherical micellar/isolated molecule and nanofiber morphologies respectively (Ghosh, A. et al. J. Am. Chem. Soc. 2012, 134:3647). The CD transition point was defined to be the pH value at which the ellipticity at 200 nm rose from a negative value (random coil) to zero accompanied by the appearance of a minimum at 218-220 nm. The addition of PA66 shifted the CD transition pH to more basic values by ˜0.6 pH units. […] This ˜0.6 pH shift in CD transition pH to more basic values were also observed when 1.5% of PA67 was added to PA65. […]

[2] = pH titration of peptide amphiphiles (pKa); details: 10 μM
Experimental: The titration measurements were conducted on 10 μM peptide amphiphile solutions prepared in 150 mM NaCl and 2.2 mM CaCl2 using milli-Q water. The solution was heated at 80° C. for 30 minutes followed by slow cooling at room temperature. The pH of the solution was then adjusted to 4 using HCl. Finally, an Accumet XL15 pH meter (Fisher Scientific) coupled with an Orion Ross Ultra semi-micro electrode (8103BNUWP, Thermo Scientific) was used to track changes in pH of the solution as NaOH solution was added in small increments. pKa values were obtained from the second inflection points of the first derivative plots of the titration data. The first transition corresponds to neutralization of excess HCl. The calculated pKas reflect the average pKa for all four glutamic acids.

[3] = Transmission electron microscopy (TEM) of self-assembled morphology
Experimental: TEM images were obtained using solutions of either 10 μM or 0.5 mM peptide amphiphile concentration, as well as 150 mM NaCl and 2.2 mM CaCl2 in Milli-Q water. The solutions were first heated at 80° C. for 30 minutes in a water bath and then gradually cooled to room temperature. This was followed by pH adjustment using either HCl or NaOH. 5 μL of this solution was pipetted onto a Carbon Formvar grid (Electron Microscopy Sciences) and allowed to sit for 2 minutes before being wicked dry using filter paper. For the 10 μM experiments that were performed to determine the time dependence of nanofiber formation, solutions were dropcast onto the grid within three minutes of pH adjustment. The samples were then negatively stained using 1 wt % uranyl acetate and imaged under a FEI Tecnai G2 Bio TWIN TEM system, operating at 100 kV. All TEM experiments were performed in triplicate, using at least three different freshly prepared solutions and grids. […]
TEM images were obtained at various concentrations and pH values, with 150 mM NaCl and 2.2 mM CaCl2 in deionized water. Solutions were heated at 80° C. for 30 minutes and gradually cooled to room temperature. Following temperature equilibration, pH adjustment was achieved using HCl or NaOH. 5 μL of this solution was pipetted onto a Carbon Formvar grid (Electron Microscopy Sciences) and allowed to sit for 2 minutes before being wicked dry using filter paper strips. The samples were negatively stained with 1 wt % uranyl acetate and imaged under a FEI Tecnai G2 Bio TWIN TEM system operating at 100 kV.
Transmission electron microscopy was employed to confirm the self-assembled morphology at different pH values and concentrations. The sample to be tested was basified to a pH of 10, stirred at 90° C. in an oil bath for 30 minutes and cooled to room temperature. The pH was then adjusted with HCl and NaOH to set the peptide solution (in 150 mM NaCl and 2.2 mM CaCl2) to a pH of either 5 or 9. Once the desired pH was reached, 5 μL of the sample was placed and spread onto a Carbon Formvar grid (Electron Microscopy Sciences) and allowed to sit for one minute before being wicked dry with filter paper. A 1 wt % uranyl acetate solution was added and spread over the grid to negatively stain the sample, and was wicked dry immediately after application. The grid was then examined by a FEI Tecnai G2 Biotwin TEM at 100 keV. The diameters of each self-assembled morphology was determined via averaging at least 30 different objects.

[4] = Fluorescence anisotropy (FA) in mouse blood serum (pure or diluted); details: only 1.5% PA67 isolated molecules in serum (control)
Experimental: Fluorescence and FA measurements were done using 20-100 μM of PA mixtures in 150 mM NaCl and 2.2 mM CaCl2 and various serum (MP Biomedicals) concentrations (0.75-100% v/v) diluted in the same salt buffer. PA samples in serum or MSA were not heated and cooled. All samples were then pH adjusted using HCl/NaOH solutions, transferred to a 96-well plate followed by collection of fluorescence emission from PA-(Rubipy)3 first parallel (Ipar) and then perpendicular (Iperp) to the excitation polarization using a hybrid reader fluorimeter (BioTek Synergy H4) at room temperature. The excitation wavelength used was 458 nm and the emission was monitored using a 640/20 nm filter. The same method was followed for control experiments involving serum background samples, dye conjugated MSA, only 1.5% PA-(Rubipy)3 in serum and 100 μM PA mixture in MSA and salt buffer. FA was calculated using the following equation: […]

[5] = MRI r1 relaxivity measurement, 1.5 Tesla; details: control standard, 1.5 T
Experimental: An MR relaxometry phantom was built by fixing 5 mm NMR sample tubes containing PA samples at a concentration of 500 μM and pH values 4 and 10 in a 600 ml beaker filled with deionized water. The samples also contained 150 mM NaCl and 2.2 mM CaCl2. The phantom was scanned on a 1.5 Tesla Signa Excite MRI scanner using an 8-channel phased-array head coil (GE Healthcare, Milwaukee, Wis., USA). R relaxometry data were acquired using an Inversion Recovery Fast Spin-Echo (IR-FSE) sequence with the following parameters: inversion time TI=50/100/200/400/600/800/1200/1600/3200 ms; repetition time TR=8000 ms; echo time TE=11 ms; echo train length=10; 90° flip angle; 100×100 mm^2 field-of-view (FOV); 0.5 mm in-plane resolution; 2 mm slice thickness; single coronal slice placed at the center of the phantom. Sample longitudinal relaxation rates (R1) were calculated by fitting the MR signal intensities observed at different TIs (S(TI)) to a three parameter model [Lu et al., MRM 2004]:
S(TI)=|S0×(1−C×exp(−TI×R1))|
Where S0 is the equilibrium signal, C is a constant accounting for imperfect inversion of magnetization. The r1 relaxivity was calculated as the slope in the linear relationship between sample concentrations and their R1 relaxation rates.

[6] = basic to acidic transition from small molecule to cylindrical nanofiber, simulated serum environment
[7] = basic to acidic transition from spherical micelle to cylindrical fiber, simulated serum environment (150 mM NaC, 2.2 mM CaCl2)

CCCCCCCCCCCCCCCC(=O)N[C@@H](Cc1ccc(O)cc1)C(=O)N[C@@H](C)C(=O)N[C@@H](C)C(=O)N[C@@H](C)C(=O)N[C@@H](CCC(=O)O)C(=O)N[C@@H](CCC(=O)O)C(=O)N[C@@H](CCC(=O)O)C(=O)N[C@@H](CCC(=O)O)C(N)=O [PA4] (Palmitoyl-YAAAEEEE-NH2)
CD Transition pH [1]: 6.0 | pH transition point at 10 μm PA [1, 6]: 6.0 | glutamic acids in the deprotonated form at the transition [2]: 91%

palmitoyl-YYAAEEEEK(DO3A:Gd)-NH2 [PA73]
CD pattern ([1]; 10 μM, pH 5-11): β-sheet pattern | nanofiber diameter ([3]; 500 μM, pH 5): 8.5±1.0 nm | nanofiber diameter ([3]; 500 μM, pH 9): 8.6±0.9 nm

Palmitoyl-VAAAEEKE-NH2 [PA11]
pH transition point at 10 μm PA [1, 6]: 6.2

Palmitoyl-MAAAEEEEK-Rubipy (Palmitoyl-MAAAEEEEK(Rubipy); not fully specified (C-terminus); printed as Palmitoyl-MAAAEEEEK-Rubipy) [PA67]
FA, constant independent of pH [4]: ~0.05

CCCCCCCCCCCCCCCC(=O)N[C@@H](Cc1ccccc1)C(=O)N[C@@H](C)C(=O)N[C@@H](C)C(=O)N[C@@H](C)C(=O)N[C@@H](CCC(=O)O)C(=O)N[C@@H](CCC(=O)O)C(=O)N[C@@H](CCC(=O)O)C(=O)N[C@@H](CCC(=O)O)C(N)=O [PA2] (Palmitoyl-FAAAEEEE-NH2)
CD Transition pH [1]: 6.6 | pH transition point at 10 μm PA [1, 6]: 6.6

Palmitoyl-IAAAEEEEK(DO3A:Tb)-NH2 (Palmitoyl-IAAAEEEEK(DO3A)-NH2; also: DO3A chelates Tb) [PA7]
pH transition point at 10 μm PA [1, 7]: 5.7

Palmitoyl-VAAAEEEEK(DO3A:Gd)-NH2 (Palmitoyl-VAAAEEEEK(DO3A)-NH2; also: DO3A chelates Gd) [PA6]
pH transition point at 10 μm PA [1, 7]: 5.3 | nanofiber to micelle transition pH, lower than PA5 ([1]; for each concentration (10 μM, 500 μM)): 0.4 units

Palmitoyl-YAAAEEEEK(DO3A:Gd)-NH2 (Palmitoyl-YAAAEEEEK(DO3A)-NH2; also: DO3A chelates Gd) [PA9]
pH transition point at 10 μm PA [1, 7]: 5.1

Palmitoyl-IAAAEEEEK(DO3A:Lu)-NH2 (Palmitoyl-IAAAEEEEK(DO3A)-NH2; also: DO3A chelates Lu) [PA8]
pH transition point at 10 μm PA [1, 7]: 5.7

CNC[C@H](O)[C@@H](O)[C@H](O)[C@H](O)CO.CNC[C@H](O)[C@@H](O)[C@H](O)[C@H](O)CO.O=C([O-])CN(CCN(CC(=O)[O-])CC(=O)O)CCN(CC(=O)[O-])CC(=O)O.[Gd+3] [Magnevist, reference compound]
relaxivity of water protons [5]: 4.5 mM⁻¹ s⁻¹

pentadecyl-YYAAEEEEK(DO3A:Gd)-NH2 [PA75]
micelle to nanofiber transition pH, more basic than PA74 ([1]; all concentrations observed): 0.15-0.63 pH units | nanofiber diameter ([3]; FIG. 50: pH 5, PA74 500 μM, PA75 100 μM): 8.1±1.3 nm | morphology by TEM ([3]; pH 5, PA74 500 μM, PA75 100 μM): nanofiber morphology | morphology by TEM ([3]; pH 9, PA74 500 μM, PA75 100 μM): spherical micelle morphology
